Reference: patent US12485191B2, “Radiopharmaceuticals and methods of use thereof” (BOARD OF REGENTS OF THE UNIVERSITY OF NEBRASKA, priority 2017, dated 2025)
Marks after values point to notes of the source that are not given here.

How the values were obtained:
[1] = Distribution coefficient (Log D7.4) of the conjugates; format: physicochemical; details: determined by HPLC analysis
[2] = molecular target: T1, cathepsin B (human Liver) (Homo sapiens, UniProt P07858); assay: Inhibition constant (Ki) of the compounds to cathepsin B; format: biochemical
T1 construct: from tissue; host or cells: human liver
Method: Determination of the Km and Vmax of Cathepsin B for Z-Arg-Arg-AMC
The solution of cathepsin B (human Liver) (50 μL, 2 nM) in assay buffer used above was mixed with 50 μL of solution of substrate Z-Arg-Arg-AMC in the assay buffer at different concentrations ([S]) (25 μM, 50 μM, 100 μM, 500 μM and 1 mM). The mixture was incubated at 37° C. and the fluorescence of the liberated aminomethylcoumarin at 460 nM using 355 nm excitation was measured at predetermined time points (0, 2, 4, 6, 8, and 10 minutes). The fluorescence intensity was plotted versus time and the reaction rates (v0) were calculated as the slope of the trend lines obtained by liner regression. Km and maximum reaction rate (Vmax-obs) was determined from the equation v0=Vmax[S]/(Km+[S]) and solved by nonlinear regression using GraphPad Prism 5. All measurements were in biological triplicate.
Determination of the Inhibition Constant (Ki) of the Compounds to Cathepsin B
The cathepsin B (human Liver) in assay buffer (25 μL) was mixed with the conjugate (25 μL) in 96-well plate. After the solution was mixed, the Z-Arg-Arg-AMC in assay buffer (50 μL) was added to the well, yielding a final cathepsin B concentration of 1 nM, conjugate concentration ([C]) of 15 nM or 5 μM, and substrate concentration ([S]) of 25 μM, 50 μM, 100 μM, 500 μM and 1 mM. The mixture was incubated at 37° C. and the fluorescence of the liberated aminomethylcoumarin at 460 nM using 355 nm excitation was measured at predetermined time points (0, 2, 4, 6, 8, and 10 minutes). The fluorescence intensity was plotted versus time with observed reaction rates (v0-obs) calculated as the slope of the trend lines obtained by liner regression. The observed rate constant (Kobs) and observed maximum reaction rate (Vmax-obs) was determined from the equation v0-obs=Vmax-obs [S]/(Kobs+[S]) and solved by nonlinear regression using GraphPad Prism 5. The Ki was calculated from the equation Kobs=Km (1+[C]/Ki). All measurements were in biological triplicate.

[3] = tested on: HT-29 cells; assay: HT-29 cell efflux study; format: cell-based, human; details: at 24 hours
Method: The HT-29 Cell Efflux Studies
The ^177Lu radioconjugate was added to a sterilized 1.5 mL microcentrifuge tube containing HT-29 cells ˜1×10^6) suspended in 300 μL of cell culture medium, yielding a final radioactivity concentration of 100,000 cpm/100 μL, and was incubated for 2 hours at 37° C. After the removal of the culture medium, the cells were washed with fresh medium (5×500 μL) followed by the addition of 500 μL of fresh medium for the efflux assay. At 0, 1, 2, 4, 8, and 24 hour time interval, fresh medium (500 μL) was added to the tube to replace the old medium which was harvested for quantitative analysis of the effluxed radioactivity using a gamma counter. The cells were lysed with a 10% aqueous SDS solution at 24 hour to quantify the remaining internalized radioactivity. The effluxed fraction is expressed as a percentage of the total radioactivity added to the tube, which is the sum of the effluxed and internalized fractions obtained from the study.

[4] = molecular target: T1, cathepsin B (human Liver); assay: Cathepsin B binding of the radioconjugates (autoradiographic SDS-PAGE); details: 2 hours
Method: Cathepsin B Binding of the Radioconjugates This procedure uses the same solutions as described above. The cathepsin B (human Liver)(3 nM, 10 μL) in storing buffer was added to the solution of the radioconjugate (500,000 cpm) in 40 μL of binding assay buffer and kept on ice for 2 hours. An aliquot (25 μL) of the solution was mixed with Novex Tris-Glycine SDS sample buffer (2×) (25 μL) and incubated for a further 10 minutes. The mixtures (20 μL) were loaded onto a Novex 16% tris-glycine gel and analyzed by SDS-PAGE at 110 V for 90 minutes. The autoradiograph of the SDS-PAGE was performed as described above.

[5] = tested on: HT-29 cells; assay: Intracellular trapping of the radioconjugates in living HT-29 cells (GPC, SDS-PAGE); format: cell-based, human; details: for intracellular adduct formation (in words): live HT-29 cells, GPC and SDS-PAGE
Method: Intracellular Trapping of the Radioconjugates in Living HT-29 Cells
To the HT-29 cells (1×10^6/well) seeded in 6-well plates was added the radioconjugates (0.74 MBq, 20 μCi) in 1 mL of cell culture medium. The cells were incubated at 37° C. for 4 hours and the medium was removed by vacuum followed washing with PBS (2×2 mL). The cells (˜3×10^6) were trypsinized and combined in microcentrifuge. The RIPA buffer (100 μL) containing Halttmprotease inhibitor (100×, 1 μL) was added to the cell pellet and vigorously vortexed for 1 minute. The suspension was incubated on ice for 15 minutes and centrifuged to remove the pellet. The supernatant (80 μL) was equally divided into two portions. The first portion (40 μL) was directly analyzed by radioactive-GPC with a flow rate of 0.6 mL/minute (40% ACN in PBS containing 0.1% sodium azide). The second portion (40 μL) of the cell lysate was mixed with Novex Tris-Glycine SDS sample buffer (2×) (40 μL) and incubated for another 15 minutes. The mixture (30 μL) was loaded onto a Novex 16% tris-glycine gel and analyzed by SDS-PAGE at 110 V for 90 minutes. The autoradiograph of the SDS-PAGE was performed as described above.

[6] = Distribution coefficient (Log D7.4) of the conjugates; format: physicochemical
Method: Distribution Coefficient (Log D7.4) of the Conjugates The distribution coefficient was determined for each ^177Lu-labeled conjugate. In a 1.5 mL centrifuge tube, 0.5 mL of 1-octanol was added to 0.5 mL of PBS (pH 7.4) containing the radiolabeled peptide (500,000 cpm). The solution was vigorously vortexed for 2 minutes at room temperature and subsequently centrifuged to yield two immiscible layers. The radioactivity of the aliquots (100 μL) taken from each layer were quantified by the gamma counter and the Log D7.4 for each conjugates was calculated.

[7] = tested on: PC-3 cells; assay: Efflux study in PC-3 cells; format: cell-based, human; details: over a 24 hour time period
[8] = tested on: PC-3 tumor; assay: Autoradiography of SDS-PAGE of tissue lysates from PC-3 tumor bearing mice; format: in vivo; details: liver, pancreas, kidney at 24 and 72 hours post-injection
[9] = molecular target: CatB (Homo sapiens, UniProt P07858); assay: CatB inhibition of GRPR-targeted agents; format: biochemical
Method: The Inhibition of Cathepsin B Activity by the Conjugates The phosphate buffer (0.1 M, pH=5.8) containing EDTA (1 mM), DTT (2.7 mM), and Brij®35 (0.03%) was prepared before the assay. […] The solution of cathepsin B (human Liver) in assay buffer (50 μL, 0.544 nM) was added to the mixture which was further incubated at 37° C. for 20 minutes. The fluorescence of the liberated aminomethylcoumarin at 460 nM using 355 nm excitation was measured and the IC50 of the cathepsin B inhibition versus the samples without the inhibitor was determined by nonlinear regression using GraphPad Prism 5.

[10] = tested on: PC-3 cells; assay: Cellular adduct study (SDS-PAGE of cellular lysates); format: cell-based, human
[11] = tested on: PC-3 tumor; details: mouse, in vivo

## Cc1cc(C)c(C(=O)OCC(=O)[C@H](CCCCN)NC(=O)[C@H](Cc2ccccc2)NC(=O)OCc2ccccc2)c(C)c1 [Compound 1a]
[1]
  logD7.4: 2.08 ± 0.08^a
[2]; read-out: CatB K1
  Ki: 23 ± 1 nM

## NCCCCC(NC(=O)C(Cc1ccccc1)NC(=O)OCc1ccccc1)C(=O)NCCc1ccccc1 (stereo not shown) [Compound 1b]
[1]
  logD7.4: 2.51 ± 0.02^a
[2]
  CatB K1: ni^c

## Cc1cc(C)c(C(=O)OCC(=O)[C@H](CCCCNC(=O)COCCOCCOCCn2cc(C[C@H](NC(=O)CN3CCN(CC(=O)O)CCN(CC(=O)O)CCN(CC(=O)O)CC3)C(=O)NCCC(=O)N[C@@H](CCCCN)C(=O)N3CCC[C@H]3C(=O)N(C)[C@@H](CCCNC(=N)N)C(=O)N[C@@H](CCCNC(=N)N)C(=O)N3CCC[C@H]3C(=O)N[C@@H](Cc3c(C)cc(O)cc3C)C(=O)N[C@H](C(=O)N[C@@H](CC(C)C)C(=O)O)C(C)(C)C)nn2)NC(=O)[C@H](Cc2ccccc2)NC(=O)OCc2ccccc2)c(C)c1 [Compound 2c]
[3]
  efflux: 36%
[4]
  adduct formation with CatB (in words): adduct formation
[5]; GPC profile, HT-29 cells, 4 hours incubation
  percentage of macromolecular adducts with respect to total intracellular activity: 61%
[5]
  intracellular adduct formation (in words): multiple macromolecule adducts formed

## Cc1cc(O)cc(C)c1C[C@H](NC(=O)[C@@H]1CCCN1C(=O)[C@H](CCCNC(=N)N)NC(=O)[C@H](CCCNC(=N)N)N(C)C(=O)[C@@H]1CCCN1C(=O)[C@H](CCCCN)NC(=O)CCNC(=O)[C@H](Cc1cn(CCOCCOCCOCC(=O)NCCCC[C@H](NC(=O)[C@H](Cc2ccccc2)NC(=O)OCc2ccccc2)C(=O)NCCc2ccccc2)nn1)NC(=O)CN1CCN(CC(=O)O)CCN(CC(=O)O)CCN(CC(=O)O)CC1)C(=O)N[C@H](C(=O)N[C@@H](CC(C)C)C(=O)O)C(C)(C)C [Compound 3a]
[3]
  efflux: 66%
[2]
  CatB K1: ni
  Ki and inhibition IC50 to CatB (in words): did not demonstrate any inhibition
[5]
  intracellular adduct formation (in words): no adduct formation
[6]; determined by radiometric analysis, 177Lu-labeled conjugate
  logD7.4: −1.56 ± 0.07^b

## CSCC[C@H](NC(=O)[C@H](CC(C)C)NC(=O)[C@H](Cc1c[nH]cn1)NC(=O)CNC(=O)[C@@H](NC(=O)[C@H](C)NC(=O)[C@H](Cc1c[nH]c2ccccc12)NC(=O)[C@H](CCC(N)=O)NC(=O)CCOCCOCCOCCOCCNC(=O)[C@H](Cc1cn(CCNC(=O)[C@H](CCCNC(=N)N)NC(=O)[C@H](CC(C)C)NC(=O)C2OC2C(=O)O)nn1)NC(=O)CN1CCN(CC(=O)O)CCN(CC(=O)O)CCN(CC(=O)O)CC1)C(C)C)C(N)=O (stereo partly shown) [^177Lu-A-AG, metal not drawn]
[7]
  reduction in efflux compared to the analogous control: ~20%
[8]
  adduct formation in tissue lysates (in words): formation of adducts
[9]
  inhibition of catB (in words): low nanomolar inhibition
[10]
  cellular adducts (in words): cellular adducts are observed
[11]
  tumor retention: 62%
[6]; GRPR-targeted agents
  logD7.4: −3.1 ± 0.1

## CC(C)C[C@H](NC(=O)C1OC1C(=O)O)C(=O)N[C@@H](CCCNC(=N)N)C(=O)NCCn1cc(C[C@H](NC(=O)CN2CCN(CC(=O)O)CCN(CC(=O)O)CCN(CC(=O)O)CC2)C(=O)NCCOCCOCCOCCOCCC(=O)N[C@H](Cc2ccccc2)C(=O)N[C@@H](CCC(N)=O)C(=O)N[C@@H](Cc2c[nH]c3ccccc23)C(=O)N[C@@H](C)C(=O)N[C@H](C(=O)NCC(=O)N[C@@H](Cc2c[nH]cn2)C(=O)N[C@@H](CC(C)C)[C@@H](O)CC(=O)N[C@H](CC(C)C)C(N)=O)C(C)C)nn1 (stereo partly shown) [^177Lu-A-ANT, metal not drawn]
[7]
  reduction in efflux compared to the analogous control: 5%
[8]
  adduct formation in tissue lysates (in words): formation of adducts
[9]
  inhibition of catB (in words): low nanomolar inhibition
[10]
  cellular adducts (in words): cellular adducts are observed
[11]
  tumor retention: 32%
[6]; GRPR-targeted agents
  logD7.4: −2.3 ± 0.2
